Source: US7851467B2, “Carbamate compounds as 5-HT4 receptor agonists” (Theravance, Inc., priority 2005, dated 2010)

Biological target: T1, human 5-HT3A receptor (Homo sapiens, UniProt P46098)
T1 construct: host or cells: HEK-293
T1 sequence (P46098 24-478): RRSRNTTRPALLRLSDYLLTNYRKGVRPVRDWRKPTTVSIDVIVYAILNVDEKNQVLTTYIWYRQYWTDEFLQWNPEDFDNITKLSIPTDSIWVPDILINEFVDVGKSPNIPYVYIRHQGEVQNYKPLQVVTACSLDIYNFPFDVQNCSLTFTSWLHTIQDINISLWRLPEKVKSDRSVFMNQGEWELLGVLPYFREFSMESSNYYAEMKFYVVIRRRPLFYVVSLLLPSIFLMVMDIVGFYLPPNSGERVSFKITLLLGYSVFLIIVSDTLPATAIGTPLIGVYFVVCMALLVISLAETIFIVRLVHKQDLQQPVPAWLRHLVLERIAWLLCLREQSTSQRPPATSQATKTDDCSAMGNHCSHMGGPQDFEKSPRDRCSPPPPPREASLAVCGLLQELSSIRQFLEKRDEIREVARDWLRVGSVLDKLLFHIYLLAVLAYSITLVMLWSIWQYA
Assay: Radioligand binding assay on 5-HT3A human receptors: determination of receptor subtype selectivity
Conditions: [3H]-GR65630 at 0.50 nM for 5-HT3A
Protocol: Assay 2: Radioligand Binding Assay on 5-HT3A Human Receptors: Determination of Receptor Subtype Selectivity
a. Membrane Preparation 5-HT3A
HEK-293 (human embryonic kidney) cells stably-transfected with human 5-HT3A receptor cDNA were obtained from Dr. Michael Bruess (University of Bonn, […]) (Bmax=˜[…] protein, as determined using [^3H]-GR65630 membrane radioligand binding assay). […]
Radioligand binding assays were performed in 96-well polypropylene assay plates in a total assay volume of 200 μL containing 1.5-2 μg membrane protein in 50 mM HEPES pH 7.4, containing 0.025% BSA assay buffer. […] Non-specific binding was determined in the presence of 10 μM unlabeled MDL72222. […] Filter plates were washed three times with filtration buffer (ice-cold 50 mM HEPES, pH7.4) to remove unbound radioactivity. Plates were dried, 35 μL Microscint-20 liquid scintillation fluid (Packard BioScience Co., Meriden, Conn.) was added to each well and plates were counted in a Packard Topcount liquid scintillation counter (Packard BioScience Co., Meriden, Conn.).
Binding data were analyzed using the non-linear regression procedure described above to determine Ki values. The BOTTOM (curve minimum) was fixed to the value for nonspecific binding, as determined in the presence of 10 μM MDL72222. The quantity [L] in the Cheng-Prusoff equation was defined as the concentration [^3H]-GR65630. […]

For `CC(C)n1c(=O)n(C(=O)N[C@H]2C[C@H]3CC[C@@H](C2)N3CCCOC(=O)N2CCN(C(=O)C3CCCO3)CC2)c2ccccc21` (stereo partly drawn) [Example 1, 4-(tetrahydrofuran-2-carbonyl)piperazine-1-carboxylic acid 3-{(1S,3R,5R)-3-[(3-isopropyl-2-oxo-2,3-dihydrobenzoimidazole-1-carbonyl)amino]-8-aza-bicyclo[3.2.1]oct-8-yl}propyl ester], which “5-HT4/5-HT3 receptor subtype selectivity, ratio Ki(5-HT3A)/Ki(5-HT4(c))” value is on record?
Its value is 160.
